Reference: PubChem BioAssay AID2060326 (Molecular Pharmacology Branch, DTP, NCI, 2025)

System: MDA-MB-468 multi-cell spheroids, viability
Assay: Anticancer human tumor MDA-MB-468 cell line growth inhibition [IpAb];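 note: spheroids exposed to agents for seven days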;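 for viability, T/C: 100% = DMSO vehicle control viability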
Settings: for IC50: curve of first compound; for viability, T/C: stronger effect = lower value
Excerpt: Combinatorial screen of targeted agents with ipatasertib and abemaciclib in multi-cell type tumor spheroids
A high-throughput screen of multi-cell type tumor spheroids was designed to identify active combinations of targeted small molecules and ipatasertib or abemaciclib. Complex spheroids include a stromal component modeled by human endothelial cells (HUVEC) and fibroblasts modeled by human mesenchymal stem cells (MSCs). The concentration ranges selected for each drug and investigational agent were based upon clinically achievable concentrations if the clinical Cmax of the agent was known.
Compounds. The drugs and investigational agents: ipatasertib (NSC767898), abemaciclib(NSC768073), selumetinib (NSC741078), trametinib (758246), adavosertib (NSC754352), everolimus (NSC733504), sapanisertib (NSC764658), vemurafenib (NSC761431), venetoclax (NSC766270), copanlisib (NSC809693), apelisib (NSC765974), palbociblib (NSC758247), vemurafenib (NSC761431), dabrafenib (NSC764134), ravoxertinib (NSC781343), BMS-387032 (NSC767048), sotorasib (NSC818433), talazoparib (NSC767125) and afursertib (NSC778305), were obtained from the National Cancer Institute (NCI) Developmental Therapeutics Program Chemical Repository. The FDA-approved anticancer drug set is available from the NCI Developmental Therapeutics Program. […] The stock solutions were prepared in dimethyl sulfoxide (DMSO, Sigma-Aldrich, St. Louis, MO, cat. D2650) at 800-fold the tested concentration and stored at -70 degrees C prior to their use. All drugs and investigational agents were tested over a range starting from a high concentration at or near the clinical Cmax and decreasing in half-log increments. If the clinical Cmax for an agent had not been determined, the highest concentration tested was 10 microM.
NCI60 Cell Culture. NCI60 cell lines were obtained from the NCI Developmental Therapeutics Program Tumor Repository. For each lot of cells, the Repository performed Applied Biosystems AmpFLSTR Identifiler testing with PCR amplification to confirm consistency with the published Identifier STR profile for each cell line. Cells were kept in continuous culture for no more than 20 passages. The optimal seeding densities for each of the cell lines at each time point assessed were determined prior to performing the concentration response studies. Briefly, the NCI60 human tumor lines were grown as monolayers in RPMI 1640 medium supplemented with 10% FBS and 2 mmol/L L-glutamine.
An additional 9 lines were from the NCI60 cell line panel including MDA-MB-231 breast carcinoma, MDA-MB-468 breast carcinoma, MCF7 breast carcinoma, Hs578T breast carcinoma, MALME-3M melanoma, SK-MEL-2 melanoma, SK-OV-3 ovarian carcinoma, DU-145 prostate carcinoma, PC-3 prostate carcinoma, all cell lines along with major genetic alterations are listed on Table 2. Pooled donor human umbilical vein endothelial cells (HUVEC, Lonza, cat. CC-2519) and human mesenchymal stem cells (hMSC, Lonza, cat. PT-2501) were purchased from Lonza (Walkersville, MD).
PDMR cell lines were grown in complete medium (DC medium): Dulbecco's modified Eagle's medium (DMEM)/F12 supplemented with 5% fetal bovine serum (FBS), 2 mM L-glutamine, 100 U/mL penicillin and 100 µg/ml streptomycin, 0.4 µg/ml hydrocortisone, 10 ng/ml epidermal growth factor (EGF) recombinant human protein, 24 µg/mL adenine, and 0.1 mg/mL primocin. During culture from frozen stock vials, PDMR cells were cultured in the same medium containing 10 µM Y-27632 (see Table 3). The PDCs were cultured in complete DMEM/F12 media without 10 microM Y-27632 dihydrochloride for at least two passages prior to the screen. The pooled donor HUVEC and hMSC were cultured in endothelial cell growth medium 2 (PromoCell, Heidelberg, Germany, cat. C-22011) and mesenchymal stem cell growth medium 2 (PromoCell, cat. C-28009), respectively. For all experiments, HUVEC and hMSC were used at passages </=5.
[…]

[1] = second compound 0.1 µM, first compound 0.0316 µM
[2] = second compound 0.1 µM, first compound 0.1 µM
[3] = second compound 0.1 µM, first compound 0.316 µM
[4] = second compound 0.1 µM, first compound 1 µM
[5] = second compound 0.1 µM, first compound 3.16 µM
[6] = second compound 0.1 µM, first compound 10 µM
[7] = second compound 0.316 µM, first compound 0.0316 µM
[8] = second compound 0.316 µM, first compound 0.1 µM
[9] = second compound 0.316 µM, first compound 0.316 µM
[10] = second compound 0.316 µM, first compound 1 µM
[11] = second compound 0.316 µM, first compound 3.16 µM
[12] = second compound 0.316 µM, first compound 10 µM
[13] = second compound 1 µM, first compound 0.0316 µM
[14] = second compound 1 µM, first compound 0.1 µM
[15] = second compound 1 µM, first compound 0.316 µM
[16] = second compound 1 µM, first compound 1 µM
[17] = second compound 1 µM, first compound 3.16 µM
[18] = second compound 1 µM, first compound 10 µM
[19] = second compound 3.16 µM, first compound 0.0316 µM
[20] = second compound 3.16 µM, first compound 0.1 µM
[21] = second compound 3.16 µM, first compound 0.316 µM
[22] = second compound 3.16 µM, first compound 1 µM
[23] = second compound 3.16 µM, first compound 3.16 µM
[24] = second compound 3.16 µM, first compound 10 µM
[25] = second compound 10 µM, first compound 0.0316 µM
[26] = second compound 10 µM, first compound 0.1 µM
[27] = second compound 10 µM, first compound 0.316 µM
[28] = second compound 10 µM, first compound 1 µM
[29] = second compound 10 µM, first compound 3.16 µM
[30] = second compound 10 µM, first compound 10 µM

SMILES | IC50 (second compound 0.1 µM) [nM] | IC50 (second compound 0.316 µM) [nM] | IC50 (second compound 1 µM) [nM] | IC50 (second compound 3.16 µM) [nM] | IC50 (second compound 10 µM) [nM] | viability, T/C [1] [%] | viability, T/C [2] [%] | viability, T/C [3] [%] | viability, T/C [4] [%] | viability, T/C [5] [%] | viability, T/C [6] [%] | viability, T/C [7] [%] | viability, T/C [8] [%] | viability, T/C [9] [%] | viability, T/C [10] [%] | viability, T/C [11] [%] | viability, T/C [12] [%] | viability, T/C [13] [%] | viability, T/C [14] [%] | viability, T/C [15] [%] | further results
CC1(C)CCC(CN2CCN(c3ccc(C(=O)NS(=O)(=O)c4ccc(NCC5CCOCC5)c([N+](=O)[O-])c4)c(Oc4cnc5[nH]ccc5c4)c3)CC2)=C(c2ccc(Cl)cc2)C1 + CC(C)NCC(C(=O)N1CCN(c2ncnc3c2C(C)CC3O)CC1)c1ccc(Cl)cc1 | 4760 | 3030 | 1380 | < 31.6 | < 31.6 | 109 | 89.5 | 98.3 | 94.6 | 71.3 | 11.3 | 69.8 | 72.2 | 82.4 | 69.5 | 49.3 | 7.93 | 56.9 | 63.8 | 55 | viability, T/C [16]: 56.6%; viability, T/C [17]: 34.1%; viability, T/C [18]: 5.02%; viability, T/C [19]: 34.4%; viability, T/C [20]: 37.7%; viability, T/C [21]: 38.5%; viability, T/C [22]: 36.4%; viability, T/C [23]: 26.1%; viability, T/C [24]: 2.19%; viability, T/C [25]: 17.4%; viability, T/C [26]: 18.9%; viability, T/C [27]: 17.9%; viability, T/C [28]: 19.5%; viability, T/C [29]: 9.97%; viability, T/C [30]: 0.99%
Cn1nccc1Nc1nccc(-c2ccn(C(CO)c3ccc(Cl)c(F)c3)c(=O)c2)n1 (stereo not given) + CC(C)NCC(C(=O)N1CCN(c2ncnc3c2C(C)CC3O)CC1)c1ccc(Cl)cc1 | 3290 | 1350 | 417 | < 31.6 | < 31.6 | 90.7 | 88.3 | 85 | 65.3 | 57.3 | 2.08 | 66 | 54.9 | 62 | 46.3 | 44.3 | 0.8 | 57.9 | 56 | 51.3 | viability, T/C [16]: 42%; viability, T/C [17]: 16.4%; viability, T/C [18]: 0.2%; viability, T/C [19]: 38.6%; viability, T/C [20]: 38.9%; viability, T/C [21]: 37%; viability, T/C [22]: 23.4%; viability, T/C [23]: 5.84%; viability, T/C [24]: 0.17%; viability, T/C [25]: 18.8%; viability, T/C [26]: 15.8%; viability, T/C [27]: 19%; viability, T/C [28]: 9.63%; viability, T/C [29]: 1.96%; viability, T/C [30]: 0.26%
